Results taken from PubChem BioAssay AID179 (DTP/NCI, 2004).
Values joined by “and” are separate entries in the source; they are usually repeats but may differ in a detail not shown here. Equal values may be shown once. Active and inactive are the calls of the source.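 The calls were made as follows: active = compounds giving half or more protection of infected cells from virus-caused growth loss, again on retest; inactive = the rest.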

Test system: CEM cells HIV-1 protection, formazan growth assay
Experiment: NCI AIDS Antiviral Assay
Details: for IC50: measured here: growth of uninfected CEM cells
Outline: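 Soluble formazan readout of cell growth; CEM cells ± HIV-1; 5 drug concs. ≥50% protection → retest; ≥50% again = moderately active; reproducible 100% = confirmed active.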

SMILES	EC50 [µM]	IC50	outcome
COCC(C)(C)N=CN1CCc2cc(OC)c(OC)cc2C1	> 813	> 813 µM	
O=C(Nc1nc(=S)c2c(ncn2CCOC(=O)c2ccccc2)[nH]1)c1ccccc1	> 61.7	> 61.7 µM	
CC(C)NC(=O)OCc1c(COC(=O)NC(C)C)n(C)c2c1ccc1ccccc12	> 174	0.0813 µM	
C=C1CC2CC(O)CC(C1)C2 (configuration not stated)			inactive
COc1ccc(NC(C)=O)cc1N1C(=O)/C(=C\c2cccc(Oc3ccccc3)c2)SC1c1ccccc1 (configuration not stated)	> 200	18.6 µM	
COC(=O)C1=C(C(=O)OC)C(OO)(c2ccccc2)OC1=O (configuration not stated)	> 200	> 200 µM	
CN(C)CCCNC(=O)c1cc(NC(=O)c2cc(NC(=O)c3cc(NC(=O)c4cccc(C(=O)Nc5cc(C(=O)Nc6cc(C(=O)Nc7cc(C(=O)NCCCN(C)C)n(C)c7)n(C)c6)n(C)c5)c4)cn3C)cn2C)cn1C	> 100	> 100 µM	
C[C@@H](NC(=O)c1ccccc1SC(=O)NCCCCl)C(N)=O	3.39	49 µM	
CC(=O)NNc1nc(C)c(C(=O)NNC(=O)C(=O)Nc2ccc(Cl)cc2)s1			inactive
NN=C(CC(O)(C(F)(F)Cl)C(F)(F)Cl)CC(O)(C(F)(F)Cl)C(F)(F)Cl	> 200	6.92 µM	
CCCCCCCCCC1CC(=O)Oc2cccc(O)c21 (configuration not stated)	> 25.1	> 25.1 µM	
CN(C)c1nc(NC23CC4CC(CC(C4)C2)C3)nc(N(C)C)n1	> 200	5.01 µM	
O=C1OC(c2ccccc2)=N/C1=C\c1ccco1	> 75.9	60.3 µM	
COc1ccc2c(c1)CC/C2=C\CC1(C)C(=O)CCC1=O	> 200	107 µM	
CC(=O)CC(=O)CCCC(=O)Nc1ccc(Cl)cc1C			inactive
COc1ccc(-n2c(SCC(=O)NC(=O)Nc3ccccc3)nc3c(Br)cc(Br)cc3c2=O)cc1	> 200	> 200 µM	
O=c1oc2ccccc2c(O)c1C1=N/C(=N/N=C/c2ccc(Cl)cc2)SC1	> 200	> 200 µM	
O=C1C2C3C=CC(CC3)C2C(=O)C2C3C=CC(C3)C12 (configuration not stated)	> 200	129 µM	
CCOC(=O)C(Cl)(NC(=O)c1ccc(F)cc1)C(F)(F)F (configuration not stated)	> 200	> 200 µM	
O=C1C=CC(=O)c2c1ccc1c3ccccc3n(CCCCCCCCCCCCn3c4ccccc4c4ccc5c(c43)C(=O)C=CC5=O)c21	> 100	72.4 µM	
Cc1[nH]n(-c2ccccc2)c(=O)c1C=NC(=S)C(N)=S	> 200	56.2 µM	

SMILES	EC50 [µM]	IC50	outcome
C[C@H]1c2c([nH]c(=O)[nH]c2=O)O[C@@H]1c1ccccc1	> 200	> 200 µM	
O=c1c2cc3ccccc3n2c(=O)c2cc3ccccc3n12	> 5.01	> 5.01 µM	
O=C(NCCCl)Nc1ccc(S(=O)(=O)c2ccc([N+](=O)[O-])cc2)cc1	> 200	16.2 µM	
N#CCCC(C#N)(CCC#N)c1ccccc1	> 813	> 813 µM	
O=c1cn[nH]c2c(Cl)cccc12	> 589	355 µM	
COC(=O)C1=Nc2c(C)nn(-c3ccccc3)c2N=C(c2ccccc2)C1	> 200	> 200 µM	
CC(=O)N1N=C(c2ccc(N=Nc3c(C)nn(-c4ccccc4)c3C)cc2)OC1c1ccc(Cl)cc1 (configuration not stated)	> 18.6	> 18.6 µM	
COc1ccc2c(c1)CSC(c1ccccc1)C2=O (configuration not stated)	> 97.7	55 µM	
CC1=CC(=O)N(n2c(C)n[nH]c2=O)C1=O	> 200	> 200 µM	
COc1ccc(-c2cc3cc(Cl)cc(Cl)c3oc2=O)cc1OC	> 200	186 µM	
OCCN=C1c2ccccc2C2C(c3ccccc31)C1c3ccccc3C(=NCCO)c3ccccc3C21 (configuration not stated)	> 200	24 µM	
COC(=O)C1=CC2C=CC(C1C(=O)OC)C1C(C(=O)OC)=C(C(=O)OC)C(C(=O)OC)=C(C(=O)OC)C21OC (configuration not stated)			inactive
Brc1c(OCc2ccccc2)ccc2ccccc12	> 200	191 µM	
C/C(=N/Nc1ccc([N+](=O)[O-])cc1[N+](=O)[O-])C(CC(C(=O)NCc1ccccc1)/C(C)=N\Nc1ccc([N+](=O)[O-])cc1[N+](=O)[O-])C(=O)NCc1ccccc1 (configuration not stated)	> 6.92	> 6.92 µM	
OC(CBr)C(O)C(O)C(O)CBr (configuration not stated)			inactive
COC(=O)CCCC(=O)C(=Nc1c(Cl)cccc1Cl)NNc1ccc(Cl)cc1	> 200	35.5 µM	
NC(N)=NS(=O)(=O)c1ccc(-n2sc3ccccc3c2=O)cc1	4.37	19.1 µM	
CN1CCN(Cc2nc3c(s2)CCc2sccc2-3)CC1	> 200	57.5 µM	
O=C(Sc1c(-c2ccccc2)c(=O)n(-c2ccccc2)c(=S)n1-c1ccccc1)c1cccs1	> 200	21.9 µM	
N=C1SC2CCCCCCC2S1 (configuration not stated)	> 200	> 200 µM	
CCOP(=O)(OCC)/C(C#N)=C/c1cnc[nH]1	> 200	> 200 µM	

SMILES	EC50 [µM]	IC50	outcome
CC1(C)OC2C(=O)OC(COCc3ccccc3)C2O1 (configuration not stated)	> 36.3	> 36.3 µM	
CC(C)C(NC(=O)C(Cc1ccccc1)NC(=O)[C@H]1CCC[C@H]1NC(=O)C(N)Cc1ccc(O)cc1)C(N)=O (some centres not stated)			inactive
O=[N+]([O-])c1ccc(/C=C/c2c[n+]([O-])nc3ccccc23)cc1	> 200	> 200 µM	
C=CN1C(=O)OC(c2ccccc2)C1c1ccccc1 (configuration not stated)	> 93.3	> 79.4 µM and 30.2 µM	
C=CCC1(O)C(=O)OC2C(O)COC21O (configuration not stated)	> 200	> 200 µM	
Cc1ccc(S(=O)(=O)N2c3ccccc3[C@H]3CCC=C[C@H]32)cc1	> 100	6.92 µM	
CC(C)OC(=O)c1ccc(NCC2=CC(=O)C=CC2=O)cc1	> 200	7.76 µM	
CN1C/C(=C\c2ccccc2[N+](=O)[O-])C(=O)/C(=C/c2ccccc2[N+](=O)[O-])C1	> 2	0.166 µM and 0.0871 µM	
CC(C)=CC1c2[nH]c3ccccc3c2CC(C(=O)O)N1C(=O)OC(C)(C)C(Cl)(Cl)Cl (configuration not stated)			inactive
O=C(/C=C/c1ccccc1)c1cc(CN2CCOCC2)c(O)c(CN2CCOCC2)c1	> 200	8.51 µM	
O=[N+]([O-])c1nccn1CC1OC(n2ccnc2[N+](=O)[O-])C(O)C(O)C1O (configuration not stated)	> 200	> 200 µM	
CCCCCCCCCCOC1C(C(C)OCCCN(C)C)OC2OC3(CCCCC3)OC21 (configuration not stated)	> 200	10.5 µM	
CCOC(=O)c1cn(-c2ccc([N+](=O)[O-])cc2)c(=S)n2c1nc1ccccc12	> 200	9.33 µM	
O=c1c2ccccc2[nH]c(=S)n1-c1cccc(C(F)(F)F)c1	> 200	> 200 µM	
N/C(=N\N=C/c1ccc(OCc2ccccc2)cc1)NO			inactive
Fc1ccccc1C1SCc2nc3ccccc3n21 (configuration not stated)	11	38.9 µM	
NC(=O)c1c([N+](=O)[O-])ncn1C1OC(CO)C(F)C1O (configuration not stated)	> 200	> 200 µM	
O=C(O)c1ccccc1/C=C1/Cc2ccc3c(c2C1=O)CCC3			inactive
[N-]=[N+]=NC12CC3CC4C5CC(CC41)CC2[C@H]5C3	> 81.3	> 81.3 µM	
N[C@H](CCC(=O)NCP(=O)(O)O)C(=O)O	> 200	> 200 µM	
O=C(COc1ccc2c(=O)cc(-c3ccccc3)oc2c1)N1CCN(c2ccccc2)CC1	> 16.2	> 16.2 µM	
